Data as given in PMC10066365, “Nemacol is a small molecule inhibitor of C. elegans vesicular acetylcholine transporter with anthelmintic potential” (Nature Communications, 2023).
“And” between values parts separate entries of the source, which are not always exact repeats. Equal entries are not always repeated.

Columns and labels:
[1] = system: Dirofilaria immitis microfilariae; experiment: Dirofilaria immitis microfilariae motility (optical flow, ImageXpress/wrmXpress) and CellTox Green viability, second lab
Experimental: We also conducted Dirofilaria immitis experiments in the lab of M. Zamanian (Univeristy of Wisconsin). For this experiment, shown in Supplementary Fig. 6, Microfilaremic blood was obtained from the NIH/NIAID Filariasis Research Reagent Resource Center (FR3)[70]. Blood was drawn and shipped approximately 24 h before use. Upon arrival, blood was warmed to 37 °C then combined with a 0.85% sodium chloride and 0.2% saponin solution in a 1:11 volumetric ratio and incubated in a 37 °C water bath for 15 min. The hemolyzed solution was passed through a 25 mm 5.0 μm pore size syringe filter. The used filter disks were transferred to petri dishes filled with RPMI 1640 culture media with 1% penicillin/streptomycin (0.1 mg/mL) and incubated at 37 °C for 2 h while microfilariae (mf) separated from the disks. Disks were discarded and mf titered to 5 mf/μL.
Aliquots of titered mf were incubated on a heating block at 60 °C for 1 h to produce heat killed positive controls. One μL of 100× drug was aliquoted to each well of a 96-well plate; 100 μL of live mf were added to treatment wells and 100 μL of heat killed mf were added to positive control wells (for a total of 500 mf/well). Plates were sealed with a breathable plate cover and maintained at 37 °C and 5% atmospheric CO2. […] Image analysis and the subsequent measurement of optical flow and fluorescence was performed using wrmXpress v1.3.02[71]. […]

[2] = system: C. elegans; experiment: C. elegans 3-day liquid viability assay, Nemacol-1 x Ivermectin matrix, wild type; details: for total animals normalized to corresponding controls: N2 wild type; for nemacol-1 x ivermectin matrix dose-response raw data: ivermectin 0 (row head 0), 3 replicate columns
[3] = system: C. elegans; experiment: Suppression of trichlorfon (AChE inhibitor) paralysis, double dose-response, scored after 80 min; assay type: in vivo, Caenorhabditis elegans; details: wild-type, bio rep 1-3
[4] = system: C. elegans; experiment: Motor phenotype time course on 60 μM Nemacol-1, EMB-8 disruption vs wild type; assay type: in vivo, Caenorhabditis elegans
[5] = Caenorhabditis elegans, read-out: C. elegans viability

SMILES: O=[N+]([O-])c1ccc(N2CCN(CC3CCCCC3)CC2)cc1 [Nemacol-1]
- impact on IVM's ability to paralyze Dirofilaria [1]: no impact
- optical_flow [1]: 64671429 and 95056554 and 124845938 and 124294468
- fold lowering of Ivermectin's EC50 ([2]; 3-day viability, wild type): 3 fold
- viability at 15 µM [2, 5]: 97%
- viability at 30 µM [2, 5]: 97%
- viability at 60 µM [2, 5]: 83%
- global ZIP synergy score ([2]; Ivermectin + Nemacol-1, wild type, threshold of synergy 10): 20.0
- total animals normalized to corresponding controls ([2]; nemacol-1 0.9375, ivermectin 0 uM): 1.1
- total animals normalized to corresponding controls ([2]; nemacol-1 1.875, ivermectin 0 uM): 1.1
- total animals normalized to corresponding controls ([2]; nemacol-1 3.75, ivermectin 0 uM): 1.2
- total animals normalized to corresponding controls ([2]; nemacol-1 7.5, ivermectin 0 uM): 1.1
- total animals normalized to corresponding controls ([2]; nemacol-1 15, ivermectin 0 uM): 0.9
- total animals normalized to corresponding controls ([2]; nemacol-1 30, ivermectin 0 uM): 0.9
- nemacol-1 x ivermectin matrix dose-response raw data ([2]; wt (N2) + 15 uM nemacol): 100.0 and 76.7 and 84.0
- nemacol-1 x ivermectin matrix dose-response raw data ([2]; wt (N2) + 30 uM nemacol): 102.1 and 93.3 and 70.0
- nemacol-1 x ivermectin matrix dose-response raw data ([2]; wt (N2) + 60 uM nemacol): 119.1 and 66.7 and 70.0
- nemacol-1 x ivermectin matrix dose-response raw data ([2]; wt (N2) + 3.75 nemacol): 102.1 and 150.0 and 114.0
- % para (percentage of animals able to adopt a clear sinusoidal wave pattern upon touch on the nose) ([3]; Nemacol-1 3.75 uM + trichlorfon 0 uM): 100%
- % para (percentage of animals able to adopt a clear sinusoidal wave pattern upon touch on the nose) ([3]; Nemacol-1 3.75 uM + trichlorfon 25 uM): 96.4286% and 92.8571% and 100%
- % para (percentage of animals able to adopt a clear sinusoidal wave pattern upon touch on the nose) ([3]; Nemacol-1 3.75 uM + trichlorfon 50 uM): 96.4286% and 85.7143% and 75%
- % para (percentage of animals able to adopt a clear sinusoidal wave pattern upon touch on the nose) ([3]; Nemacol-1 3.75 uM + trichlorfon 100 uM): 28.5714% and 32.1429% and 39.2857%
- % para (percentage of animals able to adopt a clear sinusoidal wave pattern upon touch on the nose) ([3]; Nemacol-1 3.75 uM + trichlorfon 200 uM): 10.7143% and 7.143%
- % para (percentage of animals able to adopt a clear sinusoidal wave pattern upon touch on the nose) ([3]; Nemacol-1 3.75 uM + trichlorfon 400 uM): 3.571% and 0%
- % para (percentage of animals able to adopt a clear sinusoidal wave pattern upon touch on the nose) ([3]; Nemacol-1 3.75 uM + trichlorfon 800 uM): 0%
- % para (percentage of animals able to adopt a clear sinusoidal wave pattern upon touch on the nose) ([3]; Nemacol-1 15 uM + trichlorfon 0 uM): 96.4286% and 100%
- % para (percentage of animals able to adopt a clear sinusoidal wave pattern upon touch on the nose) ([3]; Nemacol-1 15 uM + trichlorfon 25 uM): 100%
- % para (percentage of animals able to adopt a clear sinusoidal wave pattern upon touch on the nose) ([3]; Nemacol-1 15 uM + trichlorfon 50 uM): 92.8571% and 46.4286% and 64.2857%
- % para (percentage of animals able to adopt a clear sinusoidal wave pattern upon touch on the nose) ([3]; Nemacol-1 15 uM + trichlorfon 100 uM): 82.1429% and 53.5714% and 71.4286%
- % para (percentage of animals able to adopt a clear sinusoidal wave pattern upon touch on the nose) ([3]; Nemacol-1 15 uM + trichlorfon 400 uM): 14.2857% and 7.143%
- % para (percentage of animals able to adopt a clear sinusoidal wave pattern upon touch on the nose) ([3]; Nemacol-1 15 uM + trichlorfon 800 uM): 0% and 3.571%
- % para (percentage of animals able to adopt a clear sinusoidal wave pattern upon touch on the nose) ([3]; Nemacol-1 30 uM + trichlorfon 0 uM): 100%
- % para (percentage of animals able to adopt a clear sinusoidal wave pattern upon touch on the nose) ([3]; Nemacol-1 30 uM + trichlorfon 25 uM): 100%
- % para (percentage of animals able to adopt a clear sinusoidal wave pattern upon touch on the nose) ([3]; Nemacol-1 30 uM + trichlorfon 50 uM): 85.7143% and 89.2857% and 92.8571%
- % para (percentage of animals able to adopt a clear sinusoidal wave pattern upon touch on the nose) ([3]; Nemacol-1 30 uM + trichlorfon 100 uM): 78.5714% and 82.1429%
- % para (percentage of animals able to adopt a clear sinusoidal wave pattern upon touch on the nose) ([3]; Nemacol-1 30 uM + trichlorfon 200 uM): 53.5714% and 32.1429% and 39.2857%
- % para (percentage of animals able to adopt a clear sinusoidal wave pattern upon touch on the nose) ([3]; Nemacol-1 30 uM + trichlorfon 800 uM): 3.571%
- % para (percentage of animals able to adopt a clear sinusoidal wave pattern upon touch on the nose) ([3]; Nemacol-1 60 uM + trichlorfon 0 uM): 50% and 82.1429% and 71.4286%
- % para (percentage of animals able to adopt a clear sinusoidal wave pattern upon touch on the nose) ([3]; Nemacol-1 60 uM + trichlorfon 25 uM): 85.7143% and 75% and 78.5714%
- % para (percentage of animals able to adopt a clear sinusoidal wave pattern upon touch on the nose) ([3]; Nemacol-1 60 uM + trichlorfon 50 uM): 78.5714% and 57.1429% and 67.8571%
- % para (percentage of animals able to adopt a clear sinusoidal wave pattern upon touch on the nose) ([3]; Nemacol-1 60 uM + trichlorfon 100 uM): 53.5714% and 67.8571%
- % para (percentage of animals able to adopt a clear sinusoidal wave pattern upon touch on the nose) ([3]; Nemacol-1 60 uM + trichlorfon 200 uM): 35.7143% and 57.1429% and 50%
- % para (percentage of animals able to adopt a clear sinusoidal wave pattern upon touch on the nose) ([3]; Nemacol-1 60 uM + trichlorfon 800 uM): 3.571% and 7.143%
- % para (percentage of animals able to adopt a clear sinusoidal wave pattern upon touch on the nose) ([3]; Nemacol-1 […] + trichlorfon 25 uM): 100%
- % para (percentage of animals able to adopt a clear sinusoidal wave pattern upon touch on the nose) ([3]; Nemacol-1 […] + trichlorfon 800 uM): 0%
- Fraction No Phenotype ([4]; N2, 60µM, 1h, average of 3 biological repeats): 0.0000
- Fraction No Phenotype ([4]; N2, 60µM, 1h, per bio rep): 0.0000
- Fraction No Phenotype ([4]; N2, 60µM, 4h, average of 3 biological repeats): 0.5741
- Fraction No Phenotype ([4]; N2, 60µM, 4h, per bio rep): 0.3889 and 0.5556 and 0.7778
- Fraction No Phenotype ([4]; N2, 60µM, 6h, average of 3 biological repeats): 0.7407
- Fraction No Phenotype ([4]; N2, 60µM, 6h, per bio rep): 0.8333 and 0.5556
- Fraction No Phenotype ([4]; N2, 60µM, 24h, average of 3 biological repeats): 1.0000
- Fraction No Phenotype ([4]; N2, 60µM, 24h, per bio rep): 1.0000
- Fraction No Phenotype ([4]; emb-8, 60µM, 1h, average of 3 biological repeats): 0.0000
- Fraction No Phenotype ([4]; emb-8, 60µM, 1h, per bio rep): 0.0000
- Fraction No Phenotype ([4]; emb-8, 60µM, 4h, average of 3 biological repeats): 0.0000
- Fraction No Phenotype ([4]; emb-8, 60µM, 4h, per bio rep): 0.0000
- Fraction No Phenotype ([4]; emb-8, 60µM, 6h, average of 3 biological repeats): 0.0000
- Fraction No Phenotype ([4]; emb-8, 60µM, 6h, per bio rep): 0.0000
- Fraction No Phenotype ([4]; emb-8, 60µM, 24h, average of 3 biological repeats): 0.0000
- Fraction No Phenotype ([4]; emb-8, 60µM, 24h, per bio rep): 0.0000
